Laboratory results as given in patent publication US9555013B2, “Modulation of fibroblast activity” (The University of Leicester, priority 2008, dated 2017).
“Also recorded” adds a separate entry of the source.

Legend:
dermal fibroblasts = test: Floating collagen gel contraction assay; type: cell-based; conditions: FIG. 2; 10 nM
Method: The individual solutions were prepared and cooled to 4° C. before mixing to prevent premature gelation. The final solution contained 40% (v/v) Vitrogen, 20% DMEM, 30% DMEM with Hepes buffer, and 10% calf serum. Cells were incubated with the appropriate drug concentration for 30 minutes at 37° C. and added to the collagen gel mix just before gel casting at the concentration of 30,000 per ml. The lattices were cast, with 1.7 ml of the final solution per dish, in 35 mm bacteriologic dishes (Falcon Labware, BD Biosciences), to which fibroblasts poorly adhere. The mixture gelled within 30 minutes upon incubation at 37° C. in a humidified atmosphere of 95 percent air and 5 percent CO2.
To determine the effect of β2-AR antagonists on floating gel contraction (as shown in FIG. 2), lattices were detached from the sides of the dishes after 2 hours by rimming the edges of the dishes using a sterile […] and gently shaking the dishes until the gels slid freely. Lattice retraction was measured every day by placing the dishes over a flat ruler on a black background. To determine the effect of β2-AR agonists and antagonists on proliferation of cells in a model of the wound dermis, the gels remained anchored to the side of the dish (as shown in FIG. 8).

Human dermal fibroblasts [1] = test: Tethered (anchored) collagen gel model of wounded dermis; type: cell-based; conditions: 10 μM, 4 days incubation; for collagen I staining in fibroblasts released from collagen gels: FIG. 8B; for smooth muscle alpha actin staining in fibroblasts released from collagen gels: FIG. 8D
Method: 50% collagen I gels were seeded with 30,000 cells per ml in the absence or presence of a β2-AR agonist or a β2-AR antagonist.

Human dermal fibroblasts [2] = test: Secretion of TGF-β1, TGF-β2, TGF-β3 from dermal fibroblasts (ELISA); type: cell-based; conditions: FIG. 9
Method: (§1) Human dermal fibroblasts (FIGS. 9 and 15) or human neutrophils (VEGF only) (FIG. 15) were seeded into 6-well plates and grown to 60% confluence in FM. […] The supernatants were prepared and assayed using ELISA kits for TGF-β1, TGF-β2, 15 TGF-β3 and VEGF (R & D systems) following the Manufacturer's instructions.

[3] = test system: full-thickness 6 mm excisional wounds; test: Murine excisional wound model with immunohistochemistry; conditions: for murine wound closure (wound area): FIG. 3, 0.1% in 100 μl hydroactive gel, topical, daily
Method: FVB/NJ (β2-AR+/+) mice, were purchased from The Jackson laboratory (Bar Harbor, Me.). All animals used in the study were females between 8-12 weeks of age. β2-AR+/+ mice were anaesthetized by intraperitoneal injection of ketamine (100 mg/kg)/xylazine (10 mg/kg) (Pfizer). Back skin was shaved and two circular full-thickness 6 mm excisional wounds were created 2 cm apart, in the centre of the back, using a sterile 6 mm biopsy punch (SMS Inc.). […] Each mouse was housed separately after wounding until wound harvest. Wounds were left uncovered and digitally photographed, daily, to determine wound contraction over time. Wounds were harvested at days 3 and 5 post-wounding by carefully applying an 8 mm punch (SMS Inc.) around the original wound site and lightly pressing to form an outline on the skin. Scissors were then used to remove the wound site without damaging the delicate wound bed.
For histological analysis the wounds were fixed in an IHC zinc fixative (BD Biosciences). The zinc-fixed biopsies were bisected to ensure that sections were taken from the centre of the wound, dehydrated through an ethanol xylene series, and embedded in paraffin.
Specimens that were damaged in the histological process or otherwise non-interpretable were excluded from the study. Wound closure was quantified by measuring the wound area of each wound from the digital pictures taken every day with Image J, National Institutes of Health website. Images of the smooth muscle-alpha actin (SMA)-stained wounds were captured at 2× magnification on a Nikon SMZ-U upright microscope with Nikon ACT-1 software (as shown in FIG. 4). Image J was used to determine the area of SMA staining in each wound to calculate the mean area of SMA staining in each group (as shown in FIG. 5). Images of the collagen III stained wounds were captured at 20× magnification on a Nikon Eclipse 2000U inverted microscope with NIS-Elements software (as shown in FIG. 6). The intensity of collagen III staining was graded on a scale of 0-6, no staining receiving a score of 0 and the darkest staining receiving a score of 6 (as shown in FIG. 7). The staining of each wound was scored in a double-blind manner and the mean staining intensity was calculated for each group.

Human dermal fibroblasts [4] = test: Secretion of VEGF from dermal fibroblasts (ELISA); type: cell-based; conditions: FIG. 15; after 48 hours; vs control
Method: as §1

human neutrophils = test: Secretion of VEGF from neutrophils (ELISA); type: cell-based; conditions: FIG. 15; after 48 hours; vs control
Method: as §1

Compound | collagen I staining in fibroblasts released from collagen gels (Human dermal fibroblasts [1]) | smooth muscle alpha actin staining in fibroblasts released from collagen gels (Human dermal fibroblasts [1]) | increase in amount of TGF-β3 secreted (Human dermal fibroblasts [2]; 10 μM, 24 hours, vs control) | murine wound closure (wound area) [3] | amount of VEGF secreted from human dermal fibroblasts (Human dermal fibroblasts [4]) | amount of VEGF secreted from human neutrophils (human neutrophils) | also measured
Cc1ccc(OCC(O)C(C)NC(C)C)c2c1CCC2 (stereo not drawn) [ICI 118,551] | increases | increases | no effect | enhances; also recorded: acceleration | – | – | dermal fibroblast-mediated floating collagen gel contraction (dermal fibroblasts): enhance; rigidity of human dermal fibroblast-seeded collagen gels (Human dermal fibroblasts [1]; FIG. 8A): increases; increase in TGF-β1 levels (Human dermal fibroblasts [2]; 10 μM, 24 hours, vs control): 3 fold; increase in TGFβ2 levels (Human dermal fibroblasts [2]; 10 μM, after 6 hours, vs control): 1.6 fold; increase in TGF-β2 levels (Human dermal fibroblasts [2]; time given as 24 hours, not stated): 1.6 fold; smooth muscle α-actin staining / expressing cells in the wound dermis ([3]; FIGS. 4 and 5, 5 days post wounding, 0.1% topical daily, vs controls): increase; collagen III deposition (staining) in the wound dermis ([3]; FIGS. 6 and 7, 5 days post wounding, 0.1% topical daily, vs controls): increase
COc1ccc(CC(C)NCC(O)c2ccc(O)c(NC=O)c2)cc1 (stereo not drawn) [formotorol] | – | – | – | – | decrease | – | –
CC(C)NCC(O)c1ccc(O)c(O)c1 (stereo not drawn) [isoproterenol] | – | – | – | – | decrease | decrease | –
CC(C)(C)NCC(O)c1ccc(O)c(CO)c1 (stereo not drawn) [salbutamol] | decreases | decreases | 5 fold | delayed | decrease | decrease | human dermal fibroblast proliferation in collagen gels (Human dermal fibroblasts [1]; FIG. 8C): decreases; decrease in amount of TGF-β1 secreted (Human dermal fibroblasts [2]; 10 μM, 24 hours, vs control): 4 fold; decrease in amount of secreted TGFβ1 (Human dermal fibroblasts [2]; 10 μM, after 24 hours, vs control): 74%
OCc1cc(C(O)CNCCCCCCOCCCCc2ccccc2)ccc1O (stereo not drawn) [salmeterol] | – | – | – | – | decrease | decrease | –
CC(C)(C)NC[C@H](O)COc1nsnc1N1CCOCC1 [timolol] | – | – | – | – | increase | increase | –
